In patent US8247448B2, “Butenoic acid derivatives, processes for the preparation thereof, pharmaceutical compositions comprising them, and use for the treatment of dyslipidaemia, atherosclerosis and diabetes” (Merck Patent GmbH, priority 2003, dated 2012):

Columns and labels:
Type in all cases: cell-based
Gal4 alone = assay: Control: luciferase reporter test with vector expressing Gal4 alone (no PPAR ligand binding domain); settings: CV-1 cells; in the presence of the product
Method: CV-1 cells (monkey kidney cells) are co-transfected with an expression vector for the chimeric proteins PPARα-Gal4 or PPARγ-Gal4 and with a “reporter” plasmid that allows the expression of the luciferase gene placed under the control of a promoter containing Gal4 response elements. The cells are plated into 96-well microplates and co-transfected using a commercial reagent with the reporter plasmid (pG5-tk-pGL3) and the expression vector for the chimeric protein ([…]). After incubating for 4 hours, whole culture medium (comprising 10% foetal calf serum) is added to the wells. After 24 hours, the medium is removed and replaced with whole medium comprising the test products (50 μM final). The products are left in contact with the cells for 18 hours. The cells are then lysed and the luciferase activity is measured using a luminometer. A PPAR activation factor can then be calculated by means of activation of the expression of the reporter gene induced by the product (relative to the control cells that have not received any product). [drawing 12] at a concentration of 50 μM, activates the chimeric protein PPARα-Gal-4 by a factor of 2.3, and the chimeric protein […] by a factor of 6.4. In the absence of the binding domain for the PPAR α or γ ligand (vector expressing Gal4 alone), the luciferase activity measured in the presence of this product is zero.

[1] = molecular target: T1, chimeric protein PPARα-Gal4 (Homo sapiens, UniProt Q07869); assay: PPAR activation, Gal4 chimera luciferase reporter gene test in co-transfected CV-1 cells; settings: 50 μM, CV-1 cells (monkey kidney cells), 18 hours contact
T1 construct: Gal4 (fusion partner); expressed in transfected cells; host or cells: CV-1 cells (monkey kidney cells)
T1 sequence (Q07869 239-466 limits assumed): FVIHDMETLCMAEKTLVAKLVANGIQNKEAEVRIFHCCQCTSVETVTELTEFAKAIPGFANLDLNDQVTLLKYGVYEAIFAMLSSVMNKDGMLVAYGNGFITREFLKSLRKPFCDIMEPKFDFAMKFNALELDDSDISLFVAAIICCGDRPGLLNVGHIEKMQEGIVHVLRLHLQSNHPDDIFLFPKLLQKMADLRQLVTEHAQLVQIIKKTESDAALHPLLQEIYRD
Method: (§1) The measurement of the PPAR activation was performed according to a technique described by Lehmann et al. (J. Biol. Chem., 270, (1995), 12953-12956).
(§2) CV-1 cells (monkey kidney cells) are co-transfected with an expression vector for the chimeric proteins PPARα-Gal4 or PPARγ-Gal4 and with a “reporter” plasmid that allows the expression of the luciferase gene placed under the control of a promoter containing Gal4 response elements.
(§3) The cells are plated into 96-well microplates and co-transfected using a commercial reagent with the reporter plasmid (pG5-tk-pGL3) and the expression vector for the chimeric protein ([…]). After incubating for 4 hours, whole culture medium (comprising 10% foetal calf serum) is added to the wells. After 24 hours, the medium is removed and replaced with whole medium comprising the test products (50 μM final). The products are left in contact with the cells for 18 hours. The cells are then lysed and the luciferase activity is measured using a luminometer. A PPAR activation factor can then be calculated by means of activation of the expression of the reporter gene induced by the product (relative to the control cells that have not received any product).

[2] = test system: chimeric protein PPARγ-Gal4; assay: as above; settings: 50 μM, CV-1 cells (monkey kidney cells), 18 hours contact
Method: as §1, §2, §3

## CCOC(=O)C(/C=C/c1ccccc1)Oc1ccccc1 (stereo not drawn)
Gal4 alone
  luciferase activity in the absence of the binding domain for the PPAR α or γ ligand (vector expressing Gal4 alone): zero
[1]
  activation factor of the chimeric protein PPARα-Gal-4 (reporter gene expression relative to control cells): 2.3
[2]
  activation factor of the chimeric protein PPARα-Gal4 (second mention; reporter gene expression relative to control cells): 6.4
